Assay results as given in PMC7429951 (Journal of Medicinal Chemistry, 2020).
Where two headings read alike, the source gives them in different places.

How the values were obtained:
LasB [1] = molecular target: T1, LasB (Pseudomonas aeruginosa, UniProt Q02RJ6); conditions: read-out: IC50 (LasB); literature inhibitor; cited from earlier work
MMP-14 = MMP-14 (Homo sapiens, UniProt P50281); experiment: MMP-14 off-target inhibition; assay type: biochemical
From the text: (§1) Previously, we described N-aryl mercaptoacetamides with high selectivity for the bacterial over a broad range of human MMPs.[29],[30] MMPs are calcium-dependent zinc metalloproteases that play a pivotal role in numerous biochemical processes in humans.[39],[40] Based on the depth of their S1′ binding pocket, MMPs can be divided into three classes: deep (e.g., MMP-3 and -14), intermediate (e.g., MMP-2 and -8), and shallow (e.g., MMP-1 and -7). With the aim to explore the interactions of our inhibitors with all three pocket types, which could help us to assess potential effects on other not-tested representatives, we chose a panel of six MMPs, comprising two members of each class. In addition, HDAC-3, HDAC-8, and TACE (ADAM-17)—enzymes involved in gene expression and the processing of TNF-α,[41],[42] respectively—were selected as important additional human off-targets.

in vitro [2] = conditions: human, HEK293 cells (embryonal kidney)
LasB [3] = molecular target: T1, LasB
in vitro [4] = conditions: human, HepG2 cells (hepatocellular carcinoma)
[5] = tested on: P. aeruginosa strain PA14; experiment: Bacterial growth inhibition assay (MIC) P. aeruginosa; assay type: cell-based, Pseudomonas aeruginosa
MMP-7 = molecular target: T2, MMP-7 (Homo sapiens, UniProt P09237); experiment: MMP-7 off-target inhibition; assay type: biochemical; conditions: read-out: MMP-7 % inhibition @ 100 μM; 100 μM compound
T2 sequence (P09237 95-267): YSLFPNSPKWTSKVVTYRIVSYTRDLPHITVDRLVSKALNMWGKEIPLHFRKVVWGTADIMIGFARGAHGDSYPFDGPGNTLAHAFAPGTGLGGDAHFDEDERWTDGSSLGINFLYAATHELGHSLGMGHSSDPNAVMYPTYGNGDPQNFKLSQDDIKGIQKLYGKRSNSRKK
From the text: as §1

LasB [6] = molecular target: T1, LasB; experiment: biochemical; conditions: LasB IC50, FRET-based assay
MMP-3 = MMP-3 (Homo sapiens, UniProt P08254); experiment: MMP-3 off-target inhibition; assay type: biochemical; conditions: read-out: MMP-3 % inhibition @ 100 μM; 100 μM compound
MMP-3, sequence (P08254 100-477): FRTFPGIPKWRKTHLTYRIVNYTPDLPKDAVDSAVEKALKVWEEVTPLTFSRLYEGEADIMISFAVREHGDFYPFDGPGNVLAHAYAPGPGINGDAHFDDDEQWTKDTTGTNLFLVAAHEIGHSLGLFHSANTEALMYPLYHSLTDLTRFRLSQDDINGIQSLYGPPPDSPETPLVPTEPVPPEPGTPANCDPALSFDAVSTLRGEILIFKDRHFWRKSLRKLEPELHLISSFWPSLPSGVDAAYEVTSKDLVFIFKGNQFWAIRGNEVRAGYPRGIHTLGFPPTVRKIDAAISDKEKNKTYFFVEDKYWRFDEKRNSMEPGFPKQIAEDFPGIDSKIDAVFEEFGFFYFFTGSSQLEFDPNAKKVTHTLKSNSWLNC
From the text: as §1

in vitro [7] = conditions: human, A549 cells (lung carcinoma)
HDAC-3 = molecular target: T3, HDAC-3 (Homo sapiens, UniProt O15379); experiment: HDAC-3 inhibitor screening kit; assay type: biochemical
T3 construct: purchased Sigma-Aldrich (Saint Louis, MO)
T3 sequence (O15379 whole entry): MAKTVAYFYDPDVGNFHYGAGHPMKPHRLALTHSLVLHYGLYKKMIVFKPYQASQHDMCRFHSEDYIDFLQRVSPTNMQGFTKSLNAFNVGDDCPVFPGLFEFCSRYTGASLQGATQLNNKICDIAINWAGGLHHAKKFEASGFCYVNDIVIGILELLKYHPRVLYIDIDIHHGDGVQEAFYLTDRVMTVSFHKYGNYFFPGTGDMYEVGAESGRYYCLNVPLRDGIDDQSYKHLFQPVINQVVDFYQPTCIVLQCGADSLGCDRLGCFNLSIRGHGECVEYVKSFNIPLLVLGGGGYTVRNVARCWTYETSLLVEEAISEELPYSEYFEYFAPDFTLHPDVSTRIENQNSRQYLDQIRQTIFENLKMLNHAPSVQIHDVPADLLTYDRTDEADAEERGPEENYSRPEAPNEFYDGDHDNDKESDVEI
T3 sequence (Q9Y618 395-489 partner limits assumed): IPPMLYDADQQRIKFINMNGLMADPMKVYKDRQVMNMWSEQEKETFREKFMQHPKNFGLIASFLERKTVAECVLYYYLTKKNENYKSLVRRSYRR
From the text: as §1

HDAC-8 = molecular target: T4, HDAC-8 (Homo sapiens, UniProt Q9BY41); experiment: HDAC-8 inhibitor screening kit; assay type: biochemical
T4 construct: purchased Sigma-Aldrich (Saint Louis, MO)
T4 sequence (Q9BY41 1-377): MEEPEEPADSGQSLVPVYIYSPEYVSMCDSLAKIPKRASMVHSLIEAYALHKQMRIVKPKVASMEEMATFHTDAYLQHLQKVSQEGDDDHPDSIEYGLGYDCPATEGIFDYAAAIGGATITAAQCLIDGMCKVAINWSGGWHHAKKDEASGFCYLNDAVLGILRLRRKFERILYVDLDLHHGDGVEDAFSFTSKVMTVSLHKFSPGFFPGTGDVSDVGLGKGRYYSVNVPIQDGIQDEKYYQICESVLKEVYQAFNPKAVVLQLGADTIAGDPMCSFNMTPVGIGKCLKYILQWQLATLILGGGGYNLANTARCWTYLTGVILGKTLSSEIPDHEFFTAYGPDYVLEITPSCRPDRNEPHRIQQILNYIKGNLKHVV
From the text: as §1

[8] = molecular target: peptidase domain of ColH (ColH-PD) (Hathewaya histolytica, UniProt Q46085); experiment: biochemical; parameters: species or system Clostridium histolyticum; conditions: read-out: ColH-PD % inhibition @ 1 μM
peptidase domain of ColH (ColH-PD), sequence (Q46085 331-721 limits assumed): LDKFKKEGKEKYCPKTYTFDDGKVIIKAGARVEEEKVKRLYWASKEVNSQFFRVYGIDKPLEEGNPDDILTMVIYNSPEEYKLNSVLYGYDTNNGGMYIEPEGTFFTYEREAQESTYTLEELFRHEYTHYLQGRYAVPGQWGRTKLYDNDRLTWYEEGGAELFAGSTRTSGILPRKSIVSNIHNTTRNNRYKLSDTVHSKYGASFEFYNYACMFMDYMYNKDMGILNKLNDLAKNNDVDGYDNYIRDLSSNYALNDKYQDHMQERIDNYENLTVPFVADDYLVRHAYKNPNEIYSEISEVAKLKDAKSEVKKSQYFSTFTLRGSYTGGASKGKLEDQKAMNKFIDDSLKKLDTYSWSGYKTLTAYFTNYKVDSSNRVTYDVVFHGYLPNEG

MMP-1 = molecular target: T5, MMP-1 (Homo sapiens, UniProt P03956); experiment: MMP-1 off-target inhibition; assay type: biochemical; conditions: read-out: MMP-1 % inhibition @ 100 μM; 100 μM compound
T5 sequence (P03956 100-469): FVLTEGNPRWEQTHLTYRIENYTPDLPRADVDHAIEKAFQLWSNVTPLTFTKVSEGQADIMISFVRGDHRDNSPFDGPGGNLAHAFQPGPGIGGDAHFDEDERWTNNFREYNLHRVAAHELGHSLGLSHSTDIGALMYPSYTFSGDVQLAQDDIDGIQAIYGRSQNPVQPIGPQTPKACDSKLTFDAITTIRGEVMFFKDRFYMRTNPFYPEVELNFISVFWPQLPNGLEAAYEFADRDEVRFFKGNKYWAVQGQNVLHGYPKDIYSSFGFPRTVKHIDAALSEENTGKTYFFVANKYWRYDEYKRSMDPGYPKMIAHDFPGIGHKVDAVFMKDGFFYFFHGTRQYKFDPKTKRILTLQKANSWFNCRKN
From the text: as §1

MMP-8 = MMP-8 (Homo sapiens, UniProt P22894); experiment: MMP-8 off-target inhibition; assay type: biochemical
MMP-8, sequence (P22894 101-467): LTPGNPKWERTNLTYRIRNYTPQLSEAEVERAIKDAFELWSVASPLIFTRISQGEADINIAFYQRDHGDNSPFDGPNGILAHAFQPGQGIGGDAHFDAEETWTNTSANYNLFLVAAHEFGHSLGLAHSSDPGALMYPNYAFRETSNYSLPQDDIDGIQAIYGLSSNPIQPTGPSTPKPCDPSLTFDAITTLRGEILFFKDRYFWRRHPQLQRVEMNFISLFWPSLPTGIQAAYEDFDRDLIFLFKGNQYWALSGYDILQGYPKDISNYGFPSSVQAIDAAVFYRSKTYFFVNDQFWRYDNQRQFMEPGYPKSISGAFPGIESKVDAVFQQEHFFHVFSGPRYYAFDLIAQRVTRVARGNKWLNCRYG
From the text: as §1

MMP-2 = molecular target: T6, MMP-2 (Homo sapiens, UniProt P08253); experiment: MMP-2 off-target inhibition; assay type: biochemical
T6 sequence (P08253 110-660): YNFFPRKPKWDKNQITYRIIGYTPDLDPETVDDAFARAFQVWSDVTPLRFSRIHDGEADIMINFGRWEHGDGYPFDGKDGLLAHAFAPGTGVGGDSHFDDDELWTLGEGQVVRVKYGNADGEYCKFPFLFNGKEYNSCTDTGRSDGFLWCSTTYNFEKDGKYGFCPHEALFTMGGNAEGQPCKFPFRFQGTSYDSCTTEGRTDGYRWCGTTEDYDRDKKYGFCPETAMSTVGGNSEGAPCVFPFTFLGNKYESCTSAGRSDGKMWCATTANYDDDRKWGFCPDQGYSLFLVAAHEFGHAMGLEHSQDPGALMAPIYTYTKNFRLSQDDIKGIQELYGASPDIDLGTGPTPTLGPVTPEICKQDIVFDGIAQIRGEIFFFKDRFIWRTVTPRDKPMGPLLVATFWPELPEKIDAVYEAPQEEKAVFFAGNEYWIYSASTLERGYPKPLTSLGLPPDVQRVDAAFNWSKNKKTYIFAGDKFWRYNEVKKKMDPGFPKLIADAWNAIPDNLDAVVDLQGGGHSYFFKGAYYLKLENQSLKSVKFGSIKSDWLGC
From the text: as §1

TACE (ADAM-17) = molecular target: T7, TACE (ADAM-17) (Homo sapiens, UniProt P78536); experiment: TACE inhibitor screening kit; assay type: biochemical
T7 construct: purchased Sigma-Aldrich (Saint Louis, MO)
T7 sequence (P78536 215-824): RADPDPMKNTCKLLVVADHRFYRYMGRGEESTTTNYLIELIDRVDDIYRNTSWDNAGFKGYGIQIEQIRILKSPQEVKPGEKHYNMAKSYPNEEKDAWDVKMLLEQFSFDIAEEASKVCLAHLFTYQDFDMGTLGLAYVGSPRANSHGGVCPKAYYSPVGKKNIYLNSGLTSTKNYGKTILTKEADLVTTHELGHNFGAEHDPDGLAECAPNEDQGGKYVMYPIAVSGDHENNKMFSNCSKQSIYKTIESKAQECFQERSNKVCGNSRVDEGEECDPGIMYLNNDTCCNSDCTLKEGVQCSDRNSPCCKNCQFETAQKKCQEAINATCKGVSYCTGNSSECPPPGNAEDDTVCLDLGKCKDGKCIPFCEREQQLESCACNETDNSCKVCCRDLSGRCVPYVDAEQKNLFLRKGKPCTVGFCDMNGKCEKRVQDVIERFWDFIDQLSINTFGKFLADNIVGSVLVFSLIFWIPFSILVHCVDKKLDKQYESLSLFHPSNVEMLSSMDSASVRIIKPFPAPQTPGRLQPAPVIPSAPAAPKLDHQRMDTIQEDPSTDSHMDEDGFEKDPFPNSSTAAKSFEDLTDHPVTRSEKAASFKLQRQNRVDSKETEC
From the text: as §1

T1 sequence (Q02RJ6 198-498): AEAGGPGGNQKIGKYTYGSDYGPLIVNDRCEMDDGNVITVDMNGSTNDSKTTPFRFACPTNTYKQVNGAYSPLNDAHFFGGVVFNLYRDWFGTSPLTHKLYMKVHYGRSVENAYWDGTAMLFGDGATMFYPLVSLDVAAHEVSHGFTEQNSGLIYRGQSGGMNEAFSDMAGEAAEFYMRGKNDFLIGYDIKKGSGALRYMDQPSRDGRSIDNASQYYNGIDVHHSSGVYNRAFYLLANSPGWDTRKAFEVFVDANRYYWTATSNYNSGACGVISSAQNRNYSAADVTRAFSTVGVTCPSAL

In the case of `Cc1c(O)c(=S)ccn1Cc1ccc(-c2ccccc2)cc1` [Compound 1], the IC50 (LasB [1]) is given as 2730 ± 30 nM.
For `O=C1CC(S)C(=O)N1c1ccc(Cl)c(Cl)c1` (stereo not drawn) [Compound 13, 1-(3,4-Dichlorophenyl)-3-mercaptopyrrolidine-2,5-dione], the inhibition at 50 µM (MMP-14; 50 µM compound, read-out: MMP-14 % inh @50µM) was under 10%, the inhibition at 100 µM (MMP-14; read-out: MMP-14 % inhibition @ 100 μM, 100 μM compound) was under 10% and the IC50 (in vitro [2]) was over 100 µM. For the same compound, the “improved activity against LasB compared to previous hit 5” value (LasB [3]) was “two-fold”, the IC50 (in vitro [4]) was over 100 µM and the MIC [5] was over 100 µM. The MIC ([5]; Pseudomonas aeruginosa) was over 100 µM, the inhibition at 100 µM (MMP-7) was under 10% and the IC50 (LasB [6]) was 3.4 ± 0.2 µM. The inhibition at 100 µM (MMP-3) was under 10%, the IC50 (in vitro [7]) was over 100 µM and the IC50 (HDAC-3) was over 100 µM. For the same compound, the IC50 (HDAC-8) was over 100 µM, the inhibition at 1 µM [8] was 12 ± 2% and the inhibition at 100 µM (MMP-1) was under 10%. For the same compound, the inhibition at 50 µM (MMP-8; 50 µM compound, read-out: MMP-8 % inh @50µM) was under 10%, the inhibition at 100 µM (MMP-8; read-out: MMP-8 % inhibition @ 100 μM, 100 μM compound) was 84 ± 8% and the inhibition at 50 µM (MMP-2; 50 µM compound, read-out: MMP-2 % inh @50µM) was under 10%. The inhibition at 100 µM (MMP-2; read-out: MMP-2 % inhibition @ 100 μM, 100 μM compound) was 39 ± 32% and the IC50 (TACE (ADAM-17)) was 5.2 ± 0.6 µM.
